“Also recorded” adds a separate entry of the source.
What was measured:
[1] = tested on: glycerol kinase overexpressing 832/13 cells; test: Insulin secretion in glycerol kinase overexpressing 832/13 cells; assay type: cell-based, rat; settings: glucose versus glycerol
Excerpt: (§1) FIG. 9 depicts the effect of glycerol kinase overexpression in 832/13 cells on insulin excretion, lactate output and pyruvate cycling.
(§2) In contrast, pyruvate cycling and lactate output are higher in response to glycerol than to glucose.

[2] = tested on: glycerol kinase overexpressing 832/13 cells; test: Lactate output in glycerol kinase overexpressing 832/13 cells; assay type: cell-based, rat; settings: glycerol versus glucose
Excerpt: as §1, §2

[3] = tested on: glycerol kinase overexpressing 832/13 cells; test: Pyruvate cycling (13C studies) in glycerol kinase overexpressing 832/13 cells; assay type: cell-based, rat; settings: glycerol versus glucose
Excerpt: as §1, §2

rat INS-1 cells = settings: glucose-responsive clones; correlated with pyruvate cycling; cited from earlier work
832/13 cells = test: Insulin secretion assay (radioimmunoassay) in 832/13 cells; assay type: cell-based, rat; settings: relative to glucose or pyruvate
Method: The cell line 832/13 was created from INS-1 insulinoma β-cells as described earlier (Hohmeier et al. (2000) Diabetes 49:424-430). Cells were cultured in RPMI-1640 medium containing 11 mM glucose supplemented with 10% fetal bovine serum, 10 mM HEPES, 2 mM glutamine, 1 mM sodium pyruvate and […] β-mercaptoethanol. Media was routinely changed every second day. 832/13 cells were split to a cell density of 20-30% confluence in 12 well plates. At a cell density of 90%, cells were exposed to virus by adding crude extract directly to the growth media. After 16 hours of transduction, virus containing media was removed and the cells were cultured in fresh media in additional 24 hours before secretion assays. Insulin secretion was assayed in HEPES buffered saline solution (HBSS) (114 mM NaCl, 4.7 mM KCl,1.2 mM KH2PO4, 1.16 mM MgSO4, 20 mM HEPES, 2.5 mM CaCl2, 25.5 mM NaHCO3, pH 7.2 containing 0.2% bovine serum albumin (essentially fatty acid free). Cells were washed in 1 ml of HBSS, preincubated in 1.5 ml of HBSS for 2 hour prior to a 2 hour incubation in the presence of secretagogues as indicated in the figures. The insulin levels were determined by radioimmunoassay with the Coat-A-Count kit (ICN Pharmaceuticals, Costa Mesa, Calif.) and lactate output was determined with a Lactate Reagent kit (Sigma, St. Louis, Mo.) according to protocols outlined by the manufacturer.

β-cell = settings: non-metabolizable analogs of glucose; cited from earlier work

## OCC(O)CO [glycerol]
[1]
  stimulation of insulin secretion: to the same extent
[2]
  lactate output: higher
[3]
  pyruvate cycling: higher

## O=C(O)Cc1ccccc1 [phenylacetic acid]
Rat INS-1 cells
  effect on glucose-stimulated IS: impaired

## O=C(O)CC(O)C(=O)O (stereo not shown) [malate]
Rat INS-1 cells
  effect on glucose-stimulated IS: potentiated

## CC(O)C(=O)O (stereo not shown) [lactate]
832/13 cells; 832/13 cells overexpressing LDHA
  stimulation of insulin secretion as secretagogue: as effective as the other two fuels; also recorded: as effective as glucose or pyruvate
832/13 cells; 832/13 cells without LDH overexpression
  stimulation of insulin secretion as secretagogue: poor secretagogue; also recorded: only a weak stimulator of IS
832/13 cells; 832/13 cells without LDH overexpression, listed as Lactate
  stimulation of insulin secretion as secretagogue: poor secretagogue

## O=CC[C@@H](O)[C@H](O)[C@H](O)CO [2-deoxy glucose]
β-cell
  stimulation of insulin release: fail to stimulate insulin release

## CO[C@@H]([C@H](O)[C@H](O)CO)[C@@H](O)C=O [3-O-methyl glucose]
β-cell
  stimulation of insulin release: fail to stimulate insulin release

— patent publication US20050032160A1, “Cell-based therapies for diabetes mellitus and other glucose intolerant states” (priority 2003, published 2005)
